# According to patent US20100168055A1, “COMBINATION OF MONOSACCHARIDE WITH C-GLYCOSIDE DERIVATIVE AND USE THEREOF” (L'OREAL, priority 2008, published 2010):
# Key:
# [1] = test system: dermal fibroblasts of the reconstructed skin; assay: Count of dermal fibroblasts in whole reconstructed skin (propidium iodide staining of frozen sections); format: cell-based, human; conditions: 5 mM; within 48 hours of treatment
# Source text: Rhamnose was studied on a model of whole reconstructed skin in order to measure its anti-aging efficacy on the dermal compartment.
# Briefly, the model of reconstructed skin used is that described by Bell et al. (Bell E. et al., The reconstitution of living skin, J. Invest. Dermatol., 1983, July; 81): it includes a dermal equivalent on which is reconstructed a multistratified epidermis; the dermal equivalent is manufactured from acid-soluble collagen, culture medium containing serum and normal adult human fibroblasts. After 5 days of shrinkage, this equivalent is inoculated with keratinocytes and then cultured for 6 days in immersion and for 7 days in emersion in order to obtain a multistratified and differentiated epidermis having a horny layer.
# The reconstructed skin is treated with 5 mM rhamnose for 2 days and 5 days in the culture medium; after the treatment, the reconstructed skins are included in Tissue Tek in order to produce frozen sections 7 μm thick with a cryostat. […] Three frozen sections are prepared at random on each reconstructed skin; on each section, two microscopic fields (25× objective lens) are analysed by fluorescence microscopy and photographed. The dermal fibroblasts are thus counted for each reconstructed skin on six images in total representing the six microscopic fields considered. […]
# [2] = test system: keratinocytes (HaCat line); assay: Keratinocyte proliferation in culture medium deficient in growth factors (Cyquant, Nile red, XTT probes); format: cell-based
# Procedure: The keratinocytes (HaCat line) are cultured under two conditions: whole defined culture medium (standard condition) and culture medium deficient in growth factors. This deficient medium gives rise to a controlled delay in cell proliferation. Under these conditions, it is then possible to measure the effects of compounds capable of compensating for the deficiency in growth factors of the culture medium and thus of relaunching the cell multiplication and/or of stimulating cell metabolism.
# The keratinocyte proliferation is measured by means of three markers on the same cell population: the level of DNA, which is proportional to the number of cells (Cyquant probe), the level of constituent polar lipids of cell membranes (Nile red probe) and the mitochondrial respiration, which reflects the general cell metabolism (XTT probe).
# type I procollagen = assay: Indirect immunofluorescence detection of type I procollagen in the dermis of reconstructed skin; format: cell-based, human
# Procedure: Conventional detection via indirect immunofluorescence of type I procollagen in the dermis of the reconstructed skin was also performed on other series of frozen sections (anti-procoll 1 antibody (MAB 1912 Millipore)+FTIC-coupled conjugate (112-095-068 Jackson Immunoresearch)). In order to obtain bearings within the cutaneous architecture during the microscopic examination of the sections, the cell nuclei of the keratinocytes and fibroblasts are localized by staining them with propidium iodide, as described above. Three frozen sections are prepared at random on each reconstructed skin and on each section, and two microscopic fields (25× objective lens) are analysed by fluorescence microscopy and photographed. The levels of fluorescence proportional to the amount of type I procollagen are compared between the control skin and the skin treated with rhamnose.
# [3] = 1 mM, HaCat keratinocytes in medium depleted in growth factors, vs untreated control
compound,measurement,setting,value
"C[C@H](O)[C@H](O)[C@@H](O)[C@@H](O)C=O [rhamnose, L-rhamnose]",growth of the dermal fibroblasts of the reconstructed skin,[1],stimulation of growth
same,efficacy on keratinocyte proliferation,"[2]; 500 μM, medium depleted in growth factors",already show efficacy
same,level of DNA (Cyquant),[2]; [3],significantly increased
same,level of polar lipids (Nile red signal),[2]; [3],significantly increased
same,mitochondrial respiration (XTT signal),[2]; [3],significantly increased
same,number of cells compared with an untreated control (keratinocyte proliferation),[2]; keratinocytes cultured in medium depleted in growth factor,higher number of cells
same,synthesis of type I procollagen by the fibroblasts,"type I procollagen; 1 mM for 120 hours, reconstructed skin",greatly stimulated
same,green fluorescence (proportional to amount of type I procollagen) compared with control skin,"type I procollagen; 1 mM for 120 hours, reconstructed skin section",marked increase
same,procollagen 1 synthesis,"type I procollagen; 1 mM, reconstructed skin",stimulation
same,procollagen 1 synthesis,"type I procollagen; 5 mM, reconstructed skin",stimulation
